Test results published in patent publication US11970473B2, “Nootkatone derivatives and methods of using the same” (Arkansas State University—Jonesboro, priority 2021, dated 2024).
In brackets after ≈: the same amount, converted by molar mass. Where two headings read alike, the source gives them in different places.

Legend:
[1] = test system: B. subtilis ATCC 6623 (Bs); test: Minimal inhibitory concentration (MIC) assay; format: cell-based; settings: Bacillus subtilis
Procedure: (§1) Minimal inhibitory concentration (MIC) assay The standard microdilution method recommended by the Clinical and Laboratory Standards Institute (CLSI) was used to determine the MIC of the antibiotics. The starting concentration of compounds was 50 μg/ml and 2-fold dilution was done down the 96 honeycomb well plate column. The MIC assay was conducted in triplicates.

[2] = test system: Enterococcus faecalis ATCC 29212 (Es12); test: Minimal inhibitory concentration (MIC) assay; format: cell-based
Procedure: as §1

[3] = test system: Enterococcus faecium ATCC 700221 (Em21); test: Minimal inhibitory concentration (MIC) assay; format: cell-based; settings: Enterococcus faecium
Procedure: as §1

[4] = test system: S. aureus ATCC 25923 (Sa23); test: Minimal inhibitory concentration (MIC) assay; format: cell-based; settings: Staphylococcus aureus
Procedure: as §1

[5] = test system: S. aureus ATCC 33591 (Sa91); test: Minimal inhibitory concentration (MIC) assay; format: cell-based; settings: Staphylococcus aureus
Procedure: as §1

[6] = test system: S. aureus ATCC 33592 (Sa92); test: Minimal inhibitory concentration (MIC) assay; format: cell-based; settings: Staphylococcus aureus
Procedure: as §1

[7] = test system: S. aureus ATCC 700699 (Sa99); test: Minimal inhibitory concentration (MIC) assay; format: cell-based; settings: Staphylococcus aureus
Procedure: as §1

[8] = test system: S. aureus BAA-2312 (Sa12); test: Minimal inhibitory concentration (MIC) assay; format: cell-based; settings: Staphylococcus aureus
Procedure: as §1

[9] = test system: S. epidermidis 700296 (Se); test: Minimal inhibitory concentration (MIC) assay; format: cell-based; settings: Staphylococcus epidermidis, read-out: Antimicrobial activity (MIC) Se
Procedure: as §1

[10] = test system: S. aureus ATCC 700699 and S. aureus ATCC 33591; test: Time-Kill Assay; format: cell-based; settings: 4×MIC
Procedure: Time kill assay for test antibiotics against S. aureus ATCC 700699 and S. aureus ATCC 33591 strains was conducted using procedures published previously.^26 Briefly, a log-phase bacterial culture was diluted to ˜5×10^6 CFU/ml in warm sterile CAMHB broth and was exposed to antibiotics at 4×MIC concentration then incubated at 35° C. Samples of 20 μl were taken every 2 hours, diluted 10 fold to 10^−5, and the 6×6 drop plate method was performed to determine viable CFU/ml after 18-24 hours of incubation at 35° C. Each antibiotic time-kill assay was conducted in triplicate.

MRSA persisters = test: Persister Cell Killing Assay; settings: for CFU count: after 4 hrs exposure, 128×MIC
Procedure: A persister cell killing assay was performed following the methodology described by Kim et. al. with some modifications.^28 S. aureus strain was grown to stationary phase in CAMHB medium by shaking at 200 rpm overnight at 35° C. An aliquot of stationary phase culture (1 ml) was washed thrice with 1×PBS by centrifugation. After washing, the cells were diluted to ˜5×10^8 CFU/ml (confirmed by plate count). Diluted persister cells (2 ml) plus antibiotics at the desired concentration were incubated in sterile 10×75 mm plastic culture tubes at 35° C. with shaking at 200 rpm. At specific times, 400 μl aliquots were placed into microcentrifuge tubes and the cells washed and serially diluted in PBS. The diluted sample was plated on TSA agar plate with 5% sheep blood by the 6×6 drop plate method. Plates were incubated for 18-20 hours at 35° C., and then colonies were counted to calculate concentrations in CFU/ml. The experiment was performed in triplicates.

S. aureus strains = test: MIC, summary over S. aureus strains; format: cell-based; settings: Staphylococcus aureus; lowest MIC over S. aureus strains; read-out: minimum inhibitory concentration (MIC) value as low as
Procedure: as §1

[11] = test system: treated bacteria (differentially expressed proteins); test: Quantitative proteomics: protein regulation by Compound 16 versus DMSO control
[12] = ATCC6623, B. subtilis ATCC 6623, read-out: Antimicrobial activity (MIC) Bs
[13] = ATCC29212, Enterococcus faecalis ATCC 29212, read-out: Antimicrobial activity (MIC) Es12
[14] = ATCC700221, Enterococcus faecium ATCC 700221, read-out: Antimicrobial activity (MIC) Em21
[15] = ATCC25923, S. aureus ATCC 25923, antibiotic susceptible strain, read-out: Antimicrobial activity (MIC) Sa23
[16] = ATCC33591, S. aureus ATCC 33591, antibiotic-resistant strain, read-out: Antimicrobial activity (MIC) Sa91
[17] = ATCC33592, S. aureus ATCC 33592, antibiotic-resistant strain, read-out: Antimicrobial activity (MIC) Sa92
[18] = ATCC700699, S. aureus ATCC 700699, antibiotic-resistant strain, read-out: Antimicrobial activity (MIC) Sa99
[19] = BAA2312, S. aureus BAA-2312, antibiotic-resistant strain, read-out: Antimicrobial activity (MIC) Sa12

Molecule `CN[C@H](CC(C)C)C(=O)N[C@H]1C(=O)N[C@@H](CC(N)=O)C(=O)N[C@H]2C(=O)N[C@H]3C(=O)N[C@H](C(=O)N[C@H](C(=O)O)c4cc(O)cc(O)c4-c4cc3ccc4O)[C@H](O)c3ccc(c(Cl)c3)Oc3cc2cc(c3O[C@@H]2O[C@H](CO)[C@@H](O)[C@H](O)[C@H]2O[C@H]2C[C@](C)(N)[C@H](O)[C@H](C)O2)Oc2ccc(cc2Cl)[C@H]1O` [VC, vancomycin, reference compound] has an MIC ([1]; ATCC6623, read-out: Antimicrobial activity (MIC) Bs) of 0.39 µg/mL (≈ 0.269 µM), an MIC ([2]; Enterococcus faecalis, ATCC29212, read-out: Antimicrobial activity (MIC) Es12) of 3.12 µg/mL (≈ 2.15 µM) and an MIC ([3]; ATCC700221, read-out: Antimicrobial activity (MIC) Em21) of over 100 µg/mL. It also gave an MIC ([4]; ATCC25923, read-out: Antimicrobial activity (MIC) Sa23) of 3.12 µg/mL (≈ 2.16 µM), an MIC ([5]; ATCC33591, read-out: Antimicrobial activity (MIC) Sa91) of 1.56 µg/mL (≈ 1.08 µM) and an MIC ([6]; ATCC33592, read-out: Antimicrobial activity (MIC) Sa92) of 1.56 µg/mL (≈ 1.08 µM). It also gave an MIC ([7]; ATCC700699, read-out: Antimicrobial activity (MIC) Sa99) of 0.78 µg/mL (≈ 0.538 µM), an MIC ([8]; BAA2312, read-out: Antimicrobial activity (MIC) Sa12) of 0.78 µg/mL (≈ 0.538 µM) and an MIC [9] of 1.56 µg/mL (≈ 1.08 µM). The eliminated bacteria at [10] was 10 h and the CFU count (MRSA persisters) was 2.4×10^7 CFU.
`C=C(C)[C@@H]1CC=C2c3sc(-c4ccc(O)c(O)c4)nc3C[C@@H](C)[C@]2(C)C1` [Compound 16] showed an MIC [1, 12] of 12.5 µg/mL (≈ 34 µM), an MIC [2, 13] of 12.5 µg/mL (≈ 34 µM) and an MIC [3, 14] of 1.56 µg/mL (≈ 4.24 µM). The MIC [4, 15] was 3.12 µg/mL (≈ 8.49 µM), the MIC [5, 16] was 6.25 µg/mL (≈ 17 µM) and the MIC [6, 17] was 3.12 µg/mL (≈ 8.49 µM). For the same molecule, the MIC [7, 18] was 3.12 µg/mL (≈ 8.49 µM), the MIC [8, 19] was 3.12 µg/mL (≈ 8.49 µM) and the MIC (S. aureus strains) was 3.12 µg/mL (≈ 8.5 µM). For the same molecule, the eliminated bacteria at [10] was 6 h, the “time kill assay: mode of action” value [10] was “bactericidal” and the “ability to kill MRSA persisters” value (MRSA persisters) was “inhibited the growth of persisters significantly”. For the same molecule, the CFU count (MRSA persisters) was 2×10^7 CFU, the “potency against the persister compared with positive controls” value (MRSA persisters; versus vancomycin and gentamicin) was “several fold more potent than the positive controls” and the “Log(FC)” value ([11]; gene SAV0307 (A0A0H3JQ49): Similar to outer membrane protein, ⅛ MIC) was 1.313. The “Log(FC)” value ([11]; gene SAV0486: Initiation-control protein YabA, ⅛ MIC) was −1.076, the “Log(FC)” value ([11]; gene SAV0831: Similar to thioredoxin, ⅛ MIC) was −1.298 and the “Log(FC)” value ([11]; gene SAV1155 (A0A0H3JUX1): Fibrinogen-binding protein, ⅛ MIC) was 4.341. The “Log(FC)” value ([11]; gene SAV1291: Thiamine_BP domain-containing protein, ⅛ MIC) was −1.399, the “Log(FC)” value ([11]; gene SAV1556: ABC transporter MreA, ⅛ MIC) was −1.267 and the “Log(FC)” value ([11]; gene SAV1615: UPF0473 protein SAV1615, ⅛ MIC) was −1.3145. For the same molecule, the “Log(FC)” value ([11]; gene SAV1617: UPF0297 protein SAV1617, ⅛ MIC) was −2.321, the “Log(FC)” value ([11]; gene SAV1876: Uncharacterized protein, ⅛ MIC) was −3.169 and the “Log(FC)” value ([11]; gene SAV1880: UPF0435 protein SAV1880, ⅛ MIC) was −1.529. For the same molecule, the “Log(FC)” value ([11]; gene SAV2592: 3-dmu-9_3-mt domain-containing protein, ⅛ MIC) was −1.105, the “Log(FC)” value ([11]; gene acpP: Acyl carrier protein, ⅛ MIC) was −1.463 and the “Log(FC)” value ([11]; gene coa (A0A0H3JPA2): Staphylocoagulase, ⅛ MIC) was 4.524. For the same molecule, the “Log(FC)” value ([11]; gene esxA: Type VII secretion system extracellular protein A, ⅛ MIC) was −1.698, the “Log(FC)” value ([11]; gene ftnA: Bacterial non-heme ferritin, ⅛ MIC) was −1.122 and the “Log(FC)” value ([11]; gene gate: Aspartyl/glutamyl-tRNA (Asn/Gln) amidotransferase subunit C, ⅛ MIC) was −2.722. For the same molecule, the “Log(FC)” value ([11]; gene hit: Hit-like protein involved in cell-cycle regulation, ⅛ MIC) was −1.253, the “Log(FC)” value ([11]; gene lip1 (P65288): Lipase 1, ⅛ MIC) was 1.631 and the “Log(FC)” value ([11]; gene mecA (A0A0H3JPA5): Penicillin binding protein 2 prime, ⅛ MIC) was 1.378. For the same molecule, the “Log(FC)” value ([11]; gene moaD: Molybdopterin synthase sulfur carrier subunit, ⅛ MIC) was −1.617, the “Log(FC)” value ([11]; gene narG: Nitrate reductase (quinone), ⅛ MIC) was −1.5746 and the “Log(FC)” value ([11]; gene nasD: Nitrite reductase, ⅛ MIC) was −1.201. For the same molecule, the “Log(FC)” value ([11]; gene rsbV: Anti-sigma-B factor antagonist, ⅛ MIC) was −1.199 and the “Log(FC)” value ([11]; gene sbi (Q931F4): Immunoglobulin-binding protein Sbi, ⅛ MIC) was 1.71.
For gentamycin [reference compound], the CFU count (MRSA persisters) was 2.2×10^8 CFU.
Molecule `C=C(C)[C@@H]1CC=C2c3sc(Nc4ccc(F)cc4)nc3C[C@@H](C)[C@]2(C)C1` [Compound 24, (5R,5aS,7R)—N-(4-fluorophenyl)-7-isopropenyl-5,5a-dimethyl-5,6,7,8-tetrahydro-4H-benzo[g][1,3]benzothiazol-2-amine] has an MIC [1, 12] of 100 µg/mL (≈ 271 µM), an MIC [2, 13] of over 100 µg/mL and an MIC [3, 14] of over 100 µg/mL. The MIC [4, 15] was 50 µg/mL (≈ 136 µM), the MIC [5, 16] was over 100 µg/mL and the MIC [6, 17] was over 100 µg/mL. The MIC [7, 18] was over 100 µg/mL, the MIC [8, 19] was over 100 µg/mL and the MIC ([9]; S. epidermidis 700296) was over 100 µg/mL.
`C=C(C)[C@@H]1CC=C2c3sc(-c4ccc(Br)cc4)nc3C[C@@H](C)[C@]2(C)C1` [Compound 20, (5R,5aS,7R)-2-(4-bromophenyl)-7-isopropenyl-5,5a-dimethyl-5,6,7,8-tetrahydro-4H-benzo[g][1,3]benzothiazole] gave an MIC [1, 12] of over 100 µg/mL, an MIC [2, 13] of over 100 µg/mL and an MIC [3, 14] of over 100 µg/mL. The MIC [4, 15] was over 100 µg/mL, the MIC [5, 16] was 50 µg/mL (≈ 121 µM) and the MIC [6, 17] was over 100 µg/mL. The MIC [7, 18] was over 100 µg/mL, the MIC [8, 19] was over 100 µg/mL and the MIC ([9]; S. epidermidis 700296) was over 100 µg/mL.
